# Experimental data as given in ChEMBL document CHEMBL2401690, “Discovery of RG7388, a potent and selective p53-MDM2 inhibitor in clinical development” (J Med Chem, 2013).
# Experiments:
# [1] = Oral bioavailability in C57 mouse at 50 mg/kg; format: ADME, organism-based; details: in vivo
# SJSA-1 [2] = experiment: cells; details: Homo sapiens
# Description: Cytotoxicity against human SJSA1 cells expressing wild type p53 assessed as growth inhibition by MTT assay
# SW480 = experiment: cells; details: Homo sapiens
# Description: Cytotoxicity against human SW480 cells expressing p53 mutant assessed as growth inhibition by MTT assay
# MDA-MB-435 = experiment: cells; details: Homo sapiens
# Description: Cytotoxicity against human MDA-MB-435 cells expressing p53 mutant assessed as growth inhibition by MTT assay
# [3] = Apparent terminal half-life in C57 mouse at 5 mg/kg, iv; format: ADME, organism-based; design: dose 5 mg/kg, route intravenous; details: in vivo, read-out: betat1/2(app) (converted)
# HCT-116 = experiment: cells; details: Homo sapiens
# Description: Cytotoxicity against human HCT116 cells expressing wild type p53 assessed as growth inhibition by MTT assay
# [4] = Cmax in C57 mouse at 50 mg/kg, po; format: ADME, organism-based; design: dose 50 mg/kg, route oral; details: in vivo
# [5] = Total plasma clearance in C57 mouse at 5 mg/kg, iv; format: ADME, organism-based; design: dose 5 mg/kg, route intravenous
# RKO = experiment: cells; details: Homo sapiens
# Description: Cytotoxicity against human RKO cells expressing wild type p53 assessed as growth inhibition by MTT assay
# [6] = Clearance in human liver microsomes at […] by LC-MS/MS analysis; format: ADME, Microsome
# [7] = Oral bioavailability in C57 mouse at 20 mg/kg; format: ADME, organism-based; details: in vivo
# [8] = Cmax in C57 mouse at 20 mg/kg, po; format: ADME, organism-based; design: dose 20 mg/kg, route oral; details: in vivo
# SJSA-1 [9] = experiment: Induction of apoptosis in human SJSA1 cells after 48 hrs by annexin V staining assay; format: functional, cell-based
# [10] = AUC in nude mouse xenografted with human SJSA1 cells at 12.5 mg/kg, po; format: ADME, organism-based, SJSA-1; design: dose 12.5 mg/kg, route oral; details: in vivo
# SJSA-1 [11] = experiment: Antitumor activity against human SJSA1 cells xenografted in nude mouse assessed as tumor growth inhibition at 12.5 mg/kg, po after 2 weeks relative to control; format: functional; details: SJSA-1, 336 h, read-out: TGI
# SJSA-1 [12] = experiment: Cell cycle arrest in human SJSA1 cells assessed as accumulation at G2/M phase after 24 hrs; format: functional, cell-based
# SJSA-1 [13] = experiment: Cell cycle arrest in human SJSA1 cells assessed as accumulation at G1 phase after 24 hrs; format: functional, cell-based
# SJSA-1 [14] = experiment: Antitumor activity against human SJSA1 cells xenografted in nude mouse assessed as tumor growth inhibition at 25 mg/kg, po after 2 weeks relative to control; format: functional; details: SJSA-1, 336 h, read-out: TGI
# [15] = molecular target: E3 ubiquitin-protein ligase Mdm2 (Homo sapiens) (UniProt Q00987); experiment: Inhibition of MDM2 in human SJSA1 cells assessed as induction of p53 stabilization after 20 hrs by Western blot analysis; format: cell-based; details: SJSA-1
# [16] = AUC in nude mouse xenografted with human SJSA1 cells at 25 mg/kg, po; format: ADME, organism-based, SJSA-1; design: dose 25 mg/kg, route oral; details: in vivo
# [17] = Oral bioavailability in nude mouse at 50 mg/kg; format: ADME, organism-based; details: in vivo
# [18] = Clearance in nude mouse at 5 mg/kg, iv; format: ADME, organism-based; design: dose 5 mg/kg, route intravenous; details: in vivo
# [19] = Cmax in nude mouse at 50 mg/kg, po; format: ADME, organism-based; design: dose 50 mg/kg, route oral; details: in vivo
# [20] = Half life in nude mouse at 5 mg/kg, iv; format: ADME, organism-based; design: dose 5 mg/kg, route intravenous; details: in vivo
# [21] = Total plasma clearance in C57 mouse at 3.6 mg/kg, iv; format: ADME, organism-based; design: dose 3.6 mg/kg, route intravenous
# [22] = Cmax in C57 mouse at 25 mg/kg, po; format: ADME, organism-based; design: dose 25 mg/kg, route oral; details: in vivo
# [23] = Oral bioavailability in C57 mouse at 25 mg/kg; format: ADME, organism-based; details: in vivo
# [24] = Apparent terminal half-life in C57 mouse at 3.6 mg/kg, iv; format: ADME, organism-based; design: dose 3.6 mg/kg, route intravenous; details: in vivo, read-out: betat1/2(app) (converted)
# [25] = AUC in nude mouse xenografted with human SJSA1 cells at 50 mg/kg, po; format: ADME, organism-based, SJSA-1; design: dose 50 mg/kg, route oral; details: in vivo
# [26] = AUC in nude mouse xenografted with human SJSA1 cells at 100 mg/kg, po; format: ADME, organism-based, SJSA-1; design: dose 100 mg/kg, route oral; details: in vivo
# SJSA-1 [27] = experiment: animal or person; details: Mus musculus, SJSA-1, po, 336 h, read-out: TGI
# Description: Antitumor activity against human SJSA1 cells xenografted in nude mouse assessed as tumor growth inhibition at 50 mg/kg, po after 2 weeks relative to control
# SJSA-1 [28] = experiment: Antitumor activity against human SJSA1 cells xenografted in nude mouse assessed as tumor growth inhibition at 100 mg/kg, po after 2 weeks relative to control; format: functional; details: SJSA-1, 336 h, read-out: TGI
# E3 ubiquitin-protein ligase Mdm2 (Homo sapiens), sequence (Q00987 whole entry, looked up): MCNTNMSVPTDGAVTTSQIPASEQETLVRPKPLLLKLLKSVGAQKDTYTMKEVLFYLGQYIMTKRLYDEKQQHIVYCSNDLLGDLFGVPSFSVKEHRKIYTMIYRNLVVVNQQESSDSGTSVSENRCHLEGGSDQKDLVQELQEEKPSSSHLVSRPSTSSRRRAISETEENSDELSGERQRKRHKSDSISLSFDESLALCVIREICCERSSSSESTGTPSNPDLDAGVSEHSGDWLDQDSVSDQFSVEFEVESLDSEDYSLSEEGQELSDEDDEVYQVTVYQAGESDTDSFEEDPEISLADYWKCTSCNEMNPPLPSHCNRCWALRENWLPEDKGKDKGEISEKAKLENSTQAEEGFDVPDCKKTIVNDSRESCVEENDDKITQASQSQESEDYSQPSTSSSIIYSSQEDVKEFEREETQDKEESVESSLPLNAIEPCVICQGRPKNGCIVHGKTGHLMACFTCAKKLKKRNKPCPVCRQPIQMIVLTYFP
Structure (SMILES),bioavailability [1],IC50 (SJSA-1 [2]),IC50 (SW480),IC50 (MDA-MB-435),half-life [3],IC50 (HCT-116),Cmax [4],clearance [5],IC50 (RKO),CLhep predicted [6],also measured
CC(C)(C)C[C@@H]1N[C@@H](C(=O)Nc2ccc(C(=O)O)cc2F)[C@H](c2cccc(Cl)c2F)[C@@]1(C#N)c1ccc(Cl)cc1F,100%,90 nM,13.5 µM,11.7 µM,186 min,200 nM,18000 ng/mL,11.5 mL/min/kg,500 nM,7 mL/min/kg,
CC(C)(C)C[C@@H]1N[C@@H](C(=O)NCC[C@H](O)CO)[C@H](c2cccc(Cl)c2F)[C@@]1(C#N)c1ccc(Cl)cc1F,,2100 nM,16.8 µM,,31.2 min,,,51.7 mL/min/kg,,19.9 mL/min/kg,bioavailability [7]: 3.6%; Cmax [8]: 300 ng/mL
CC(C)(C)C[C@@H]1N[C@@H](C(=O)Nc2ccc(C(=O)O)cn2)[C@H](c2cccc(Cl)c2F)[C@@]1(C#N)c1ccc(Cl)cc1F,53%,50 nM,13.8 µM,11.2 µM,61.8 min,90 nM,3000 ng/mL,29.7 mL/min/kg,400 nM,8.9 mL/min/kg,
COc1cc(C(=O)O)ccc1NC(=O)[C@@H]1N[C@@H](CC(C)(C)C)[C@](C#N)(c2ccc(Cl)cc2F)[C@H]1c1cccc(Cl)c1F [IDASANUTLIN],80%,10 nM,13.3 µM,9.1 µM,96 min,10 nM,9900 ng/mL,10.3 mL/min/kg,70 nM,4.3 mL/min/kg,Activity (SJSA-1 [9]): Dose-dependent effect; AUC [10]: 23000 ng·h/mL; inhibition in vivo at 12.5 mg/kg (SJSA-1 [11]): 88%; Activity (SJSA-1 [12]): Dose-dependent effect; Activity (SJSA-1 [13]): Dose-dependent effect; inhibition in vivo at 25 mg/kg (SJSA-1 [14]): > 100%; inhibition [15]: Dose-dependent effect; AUC [16]: 29000 ng·h/mL
COc1cc(NC(=O)[C@@H]2N[C@@H](CC(C)(C)C)[C@](C#N)(c3ccc(Cl)cc3F)[C@H]2c2cccc(Cl)c2F)ccc1C(=O)O,56%,30 nM,18.4 µM,6.2 µM,288 min,40 nM,4100 ng/mL,21.8 mL/min/kg,140 nM,6.6 mL/min/kg,
CC(C)(C)C[C@@H]1N[C@@H](C(=O)Nc2ccc(C(=O)O)cc2)[C@H](c2cccc(Cl)c2F)[C@@]1(C#N)c1ccc(Cl)cc1F,,40 nM,13.8 µM,11.1 µM,,90 nM,,,210 nM,4.9 mL/min/kg,bioavailability [17]: 83%; clearance [18]: 13.8 mL/min/kg; Cmax [19]: 12000 ng/mL; half-life [20]: 260 min
CC(C)(C)C[C@@H]1N[C@@H](C(=O)Nc2ccn(CC(C)(C)O)n2)[C@H](c2cccc(Cl)c2F)[C@@]1(C#N)c1ccc(Cl)cc1F,,1320 nM,6.28 µM,8.56 µM,,1420 nM,,,1420 nM,4.2 mL/min/kg,clearance [21]: 19.8 mL/min/kg; Cmax [22]: 10 ng/mL; bioavailability [23]: < 1%; half-life [24]: 88.8 min
CC(C)(C)C[C@@H]1N[C@@H](C(=O)Nc2ccc(C(=O)O)c(F)c2)[C@H](c2cccc(Cl)c2F)[C@@]1(C#N)c1ccc(Cl)cc1F,49%,50 nM,15.9 µM,11.3 µM,264 min,140 nM,3800 ng/mL,18.4 mL/min/kg,440 nM,12.2 mL/min/kg,
CC(C)(C)C[C@@H]1N[C@@H](C(=O)NCC[C@H](O)CO)[C@H](c2cccc(Cl)c2)[C@@]1(C#N)c1ccc(Cl)cc1,,2100 nM,30 µM,14.4 µM,26.4 min,3400 nM,,52.9 mL/min/kg,3000 nM,18.7 mL/min/kg,bioavailability [7]: 6.2%; Cmax [8]: 500 ng/mL
CCOc1cc(C(C)(C)C)ccc1C1=N[C@@](C)(c2ccc(Cl)cc2)[C@@](C)(c2ccc(Cl)cc2)N1C(=O)N1CCN(CCCS(C)(=O)=O)CC1 [RO-5045337],,,,,,,,,,5.8 mL/min/kg,AUC [25]: 200 µg·h/mL; clearance [18]: 8.6 mL/min/kg; AUC [26]: 380 µg·h/mL; inhibition in vivo at 50 mg/kg (SJSA-1 [27]): 74%; inhibition in vivo at 100 mg/kg (SJSA-1 [28]): > 100%; half-life [20]: 162 min
CC(C)(C)C[C@@H]1N[C@@H](C(=O)Nc2ccc3cc(C(=O)O)ccc3c2)[C@H](c2cccc(Cl)c2F)[C@@]1(C#N)c1ccc(Cl)cc1F,27%,40 nM,12.3 µM,9.2 µM,84.6 min,140 nM,1700 ng/mL,24.5 mL/min/kg,280 nM,9.4 mL/min/kg,
CC(C)(C)C[C@@H]1N[C@@H](C(=O)Nc2cccc(C(=O)O)c2)[C@H](c2cccc(Cl)c2F)[C@@]1(C#N)c1ccc(Cl)cc1F,,160 nM,15.6 µM,9.7 µM,,410 nM,,,1540 nM,,
